{"source": "patent US12685756B2", "about": "“Methods of treating disease with Terlipressin” (BIOVIE INC., priority 2022, dated 2026)", "key": {"[1]": {"details": "in vivo; cited from earlier work"}, "[2]": {"details": "in vivo; cited from earlier work", "remark": "listed apart in the source"}, "[3]": {"experiment": "ongoing clinical trial of terlipressin administered as a continuous infusion in patients with cirrhosis and refractory ascites (serum sodium, hyponatremia)", "details": "human, in vivo", "description": "The following clinical observations were made in an ongoing clinical trial evaluating the safety and efficacy of terlipressin, administered as a continuous infusion, in patients with cirrhosis and refractory ascites. In FIGS. 1-4, “D” stands for “Day” and the notation “Dn” where n is an integer refers to the number of days after the baseline sodium level was measured. The notation “D+N” where N is an integer refers to the number of days after administration of terlipressin was stopped.\nPatient #1, a patient with cirrhosis due to NASH and recurrent ascites that was not responding to treatment with the diuretic furosemide initiated infusion with terlipressin (3 mg/day) on Day 1. Terlipressin dose (mg/day), furosemide daily dose, and serum sodium levels of the Patient #1 are recorded in FIG. 1. After 6 days of treatment with terlipressin at a dose of 3 mg/day the dose of terlipressin was escalated to 4 mg/day as per protocol. A modest reduction in serum sodium of 3 mmol/L from baseline was noted before the dose increase. After 7 days of treatment with 4 mg/day serum sodium decreased an additional 8 mmol/L so that there was a total reduction of 11 mmol/L in the 13 days of treatment versus baseline (128 vs 139 mmol/L). […] Terlipressin infusion was discontinued.\nPatient #2, a person with alcoholic cirrhosis and recurrent ascites who could not be treated with diuretics began treatment with terlipressin at a dose of 3 mg/day. The daily terlipressin dose and serum sodium levels of the Patient #2 are recorded in FIG. 2.\nPatient #3, a person with cirrhosis due to NASH, with uncontrolled ascites despite ongoing treatment with the diuretics furosemide and spironolactone, initiated treatment with terlipressin administered as a continuous intravenous infusion at a dose of 3 mg/day. Terlipressin dose (mg/day), furosemide daily dose, and serum sodium levels of the Patient #3 are recorded in FIG. 3. […] Though the patient was asymptomatic the patient was directed to go to the Emergency room. […]"}, "[4]": {"details": "administered acutely as a single bolus dose; cited from earlier work"}, "[5]": {"details": "continuous infusion, outpatient setting, without daily albumin; cited from earlier work"}, "[6]": {"details": "in vivo; cited from earlier work", "remark": "listed apart in the source"}, "[7]": {"design": "species or system human", "details": "in vivo", "description": "Patient #4, who was one of 6 patients treated with terlipressin administered as a continuous infusion in our previous Phase 2a trial, was a person with recurrent ascites due to cirrhosis despite taking the […] spironolactone and furosemide. Terlipressin, furosemide, and serum sodium levels of […] are recorded in FIG. 4. According to protocol this patient began treatment with terlipressin at an initial dose of 2 mg/day who was escalated to a dose of 3 mg/day on Day 5. Serum sodium gradually declined over time reaching a reduction of 10 mmol/L on Day 5 at which point the patient stopped taking furosemide. Serum sodium continued to decline and spironolactone was stopped for two days which had no impact on declining serum sodium. Terlipressin infusion was stopped after 9 days of treatment and serum sodium rebounded after 2 days of drug cessation.\nAdditionally, one patient in our previously conducted Phase 2a trial (n=6) similarly developed asymptomatic hyponatremia in response to terlipressin administration.\nIn searching for a commonality between the three patients that experienced hyponatremia in response to terlipressin treatment in the current trial it was noted that the three patients were taking daily gabapentin (Patient #1 and 2) or pregabalin (Patient #3) though none of the other 7 patients randomized to treatment with terlipressin were taking either of these medications. Moreover, the one patient out of six who developed hyponatremia in response to terlipressin in the previous Phase 2a trial was also taking gabapentin."}, "[8]": {"details": "human, in vivo; cited from earlier work"}, "[9]": {"details": "human, in vivo; cited from earlier work", "remark": "listed apart in the source"}, "[10]": {"details": "bolus IV administration, cited from earlier work"}, "[11]": {"details": "administered over 14 days with daily albumin to HRS patients; cited from earlier work"}}, "note": "Positions of bridges follow the written chain, without caps; N, C: chain ends. Residues, ends and D or L forms follow the SMILES beside them."}
{"smiles": "NC(=O)CC[C@@H]1NC(=O)[C@H](Cc2ccccc2)NC(=O)[C@H](Cc2ccc(O)cc2)NC(=O)CCSSC[C@@H](C(=O)N2CCC[C@H]2C(=O)N[C@H](CCCN=C(N)N)C(=O)NCC(N)=O)NC(=O)[C@H](CC(N)=O)NC1=O", "note": "[desmopressin]", "values": [{"measurement": "incidence of desmopressin-induced hyponatremia", "setting": "[1]", "result": 7.6, "unit": "%"}]}
{"smiles": "NCC1(CC(=O)O)CCCCC1", "note": "[gabapentin]", "values": [{"measurement": "risk of hyponatremia compared with other anti-epilepsy drugs", "setting": "[2]", "result": "lowest risk of hyponatremia among anti-epilepsy drugs"}]}
{"smiles": "NCCCC[C@H](NC(=O)[C@@H]1CCCN1C(=O)[C@@H]1CSSC[C@H](NC(=O)CNC(=O)CNC(=O)CN)C(=O)N[C@@H](Cc2ccc(O)cc2)C(=O)N[C@@H](Cc2ccccc2)C(=O)N[C@@H](CCC(N)=O)C(=O)N[C@@H](CC(N)=O)C(=O)N1)C(=O)NCC(N)=O", "note": "[terlipressin] (H-GGGCYFQNCPKG-NH2; disulfide 4-9)", "values": [{"measurement": "additional decrease in serum sodium", "setting": "[3]", "result": 4, "unit": "mmol/L"}, {"measurement": "relatedness of hyponatremia to treatment", "setting": "[3]", "result": "considered related to terlipressin"}, {"measurement": "total reduction in serum sodium versus baseline", "setting": "[3]", "result": 11, "unit": "mmol/L"}, {"measurement": "antidiuretic effect", "setting": "[4]", "result": "mediates antidiuretic effects"}, {"measurement": "effect on renal function and ascites", "setting": "[5]", "result": "improve renal function and reduce ascites"}, {"measurement": "effect on serum sodium concentrations", "setting": "[5]", "result": "improve serum sodium concentrations"}, {"measurement": "incidence of hyponatremia", "setting": "[6]", "result": "< 5", "unit": "%"}, {"measurement": "patients who developed asymptomatic hyponatremia in response to terlipressin", "setting": "[7]", "result": "one patient"}, {"measurement": "relatedness of severe hyponatremia to treatment", "setting": "[7]", "result": "considered related to terlipressin treatment"}, {"measurement": "serum sodium after drug cessation", "setting": "[7]", "result": "rebounded"}, {"measurement": "symptoms of severe hyponatremia", "setting": "[7]", "result": "asymptomatic"}, {"measurement": "patients who experienced hyponatremia defined as ≥5 mmol decrease in serum sodium", "setting": "[8]", "result": 67, "unit": "%"}, {"measurement": "patients with severe hyponatremia (reduction in serum sodium of >10 mmol/L)", "setting": "[9]", "result": "more than 12%"}, {"measurement": "patients with severe hyponatremia who experience neurological manifestations", "setting": "[9]", "result": "at least 30%"}, {"measurement": "hours in which V2 mediated antidiuretic effects can predominate", "setting": "[10]; between bolus doses", "result": "4 to 6", "unit": "h"}, {"measurement": "duration of V1-mediated pharmacodynamic effects", "setting": "[10]", "result": "3 to 4", "unit": "h"}, {"measurement": "effect on low serum sodium", "setting": "[11]", "result": "can even correct low serum sodium"}]}
